The values that follow are results of earlier work, collected in patent publication US6849609B2, “Method and composition for controlled release acarbose formulations” (priority 2001, dated 2005).

The test system of the data set is patients.

Turning to `C[C@H]1O[C@H](O[C@H]2[C@H](O)[C@@H](O)[C@@H](O[C@H]3[C@H](O)[C@@H](O)C(O)O[C@@H]3CO)O[C@@H]2CO)[C@H](O)[C@@H](O)[C@@H]1N[C@H]1C=C(CO)[C@@H](O)[C@H](O)[C@H]1O` (some centres unmarked) [Acarbose], the hypoglycemia result (acarbose alone, even when administered to patients in a fasted state) was “has not been shown to cause hypoglycemia”. Moreover, the “most common adverse events” value (patients taking acarbose, shown to abate with time) is “flatulence, diarrhea and abdominal discomfort”.
